Measured values as given in patent publication US9617256B2 (priority 2007, dated 2017).
Values after ≈ are worked out from the molar mass of the structure shown.

Key:
AECO001 (ATCC25922) = assay: MIC broth microdilution, AECO001; assay type: cell-based, E. coli; settings: Escherichia coli, ATCC25922, read-out: MIC AECO001
How it was run: (§1)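 MICs come from broth microdilution in cation-adjusted Mueller-Hinton broth, final inoculum 3×10^5–7×10^5 CFU/mL, 18-24 hours at 35° C. Levofloxacin and QC strains served as assay controls.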

[1] = tested on: AABA1060 (clinical isolate of Acinetobacter baumannii); assay: MIC broth microdilution, AABA1060; assay type: cell-based; settings: Acinetobacter baumannii, read-out: MIC AABA1060
How it was run: as §1

AECO001 HSA AGP = assay: MIC broth microdilution, AECO001 HSA AGP; assay type: cell-based, E. coli; settings: Escherichia coli
How it was run: as §1

[2] = tested on: AECO063 (ATCC25922 bearing an acrAB mutation); assay: microbe, parasite or virus in culture; assay type: cell-based, E. coli; settings: Escherichia coli, ATCC25922, read-out: MIC AECO063
How it was run: as §1

[3] = tested on: APAE006 in the presence of 8 micrograms per milliliter of polymyxin B nonapeptide; assay type: cell-based, P. aeruginosa; settings: in the presence of 8 micrograms per milliliter of polymyxin B nonapeptide
How it was run: (§2)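 Incubation: 35° C., ambient air, 18-24 h. Medium: cation-adjusted Mueller-Hinton broth with 2-fold serial dilutions of drug. Inoculum: 3×10^5–7×10^5 CFU/mL final, per CLSI microdilution method.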

APAE001 (ATCC27853) = assay: MIC broth microdilution, APAE001; assay type: cell-based, P. aeruginosa; settings: Pseudomonas aeruginosa, ATCC27853, read-out: MIC APAE001, APAE001 is ATCC27853
How it was run: as §1

[4] = tested on: ASAU001 (laboratory strain of S. aureus, ATCC29213); assay: MIC broth microdilution, ASAU001; assay type: cell-based; settings: Staphylococcus aureus, ATCC29213, read-out: MIC ASAU001
How it was run: as §1

[5] = tested on: APAE006 (strain of P. aeruginosa in which all efflux pumps are inactivated); assay: microbe, parasite or virus in culture; assay type: cell-based; settings: Pseudomonas aeruginosa, read-out: MIC APAE006, P. aeruginosa, all efflux pumps inactivated
How it was run: as §2

SMILES	MIC (AECO001 (ATCC25922))	MIC [1]	MIC (AECO001 HSA AGP)	MIC [2]	MIC APAE006 + PMBN [3]	MIC (APAE001 (ATCC27853))	MIC [4]	MIC [5]
COC(C)[C@H](NC(=O)c1ccc(/C=C/C#Cc2ccc(CN3CCOCC3)cc2)cc1)C(=O)NO (some centres unmarked) [Example 110-6]	< 2 µg/mL	2 to 16 µg/mL (≈ 4.19 to 33.5 µM)	2 to 16 µg/mL (≈ 4.19 to 33.5 µM)	< 2 µg/mL	A (MIC's of 2.0 μg/mL or less = A)	2 to 16 µg/mL (≈ 4.19 to 33.5 µM)	> 64 µg/mL	< 2 µg/mL
CC(C)(O)[C@H](NC(=O)c1ccc(/C=C/C#Cc2ccc(CN3CCOCC3)cc2)cc1)C(=O)NO [Example 110-7]	< 2 µg/mL	< 2 µg/mL	2 to 16 µg/mL (≈ 4.19 to 33.5 µM)	< 2 µg/mL	A (MIC's of 2.0 μg/mL or less = A)	2 to 16 µg/mL (≈ 4.19 to 33.5 µM)	> 64 µg/mL	< 2 µg/mL
O=C(N[C@H](C(=O)NO)C1CCS(=O)(=O)CC1)c1ccc(/C=C/C#Cc2ccc(CN3CCOCC3)cc2)cc1 [Example 110-8]	< 2 µg/mL	16 to 64 µg/mL (≈ 29 to 116 µM)	16 to 64 µg/mL (≈ 29 to 116 µM)	< 2 µg/mL	A (MIC's of 2.0 μg/mL or less = A)	2 to 16 µg/mL (≈ 3.63 to 29 µM)	> 64 µg/mL	< 2 µg/mL
O=C(N[C@H](C(=O)NO)C1CC1)c1ccc(/C=C/C#Cc2ccc(CN3CCOCC3)cc2)cc1 [Example 110-9]	< 2 µg/mL	2 to 16 µg/mL (≈ 4.35 to 34.8 µM)	2 to 16 µg/mL (≈ 4.35 to 34.8 µM)	< 2 µg/mL	A (MIC's of 2.0 μg/mL or less = A)	2 to 16 µg/mL (≈ 4.35 to 34.8 µM)	> 64 µg/mL	< 2 µg/mL
O=C(N[C@@H](Cn1cncn1)C(=O)NO)c1ccc(/C=C/C#Cc2ccc(CN3CCOCC3)cc2)cc1 [Example 110-10]	< 2 µg/mL	16 to 64 µg/mL (≈ 32 to 128 µM)	2 to 16 µg/mL (≈ 4 to 32 µM)	< 2 µg/mL	A (MIC's of 2.0 μg/mL or less = A)	2 to 16 µg/mL (≈ 4 to 32 µM)	16 to 64 µg/mL (≈ 32 to 128 µM)	< 2 µg/mL
O=C(N[C@H](C(=O)NO)c1ccccc1)c1ccc(/C=C/C#Cc2ccc(CN3CCOCC3)cc2)cc1 [Example 110-11]	< 2 µg/mL	16 to 64 µg/mL (≈ 32.3 to 129 µM)	2 to 16 µg/mL (≈ 4.04 to 32.3 µM)	< 2 µg/mL	A (MIC's of 2.0 μg/mL or less = A)	16 to 64 µg/mL (≈ 32.3 to 129 µM)	16 to 64 µg/mL (≈ 32.3 to 129 µM)	< 2 µg/mL
O=C(NC(C(=O)NO)C(F)(F)F)c1ccc(/C=C/C#Cc2ccc(CN3CCOCC3)cc2)cc1 (centres unmarked) [Example 110-12]	< 2 µg/mL	< 2 µg/mL	< 2 µg/mL	< 2 µg/mL	A (MIC's of 2.0 μg/mL or less = A)	2 to 16 µg/mL (≈ 4.1 to 32.8 µM)	16 to 64 µg/mL (≈ 32.8 to 131 µM)	< 2 µg/mL
CN(C)CC(=O)NC[C@H](NC(=O)c1ccc(/C=C/C#Cc2ccc(CN3CCOCC3)cc2)cc1)C(=O)NO [Example 111-2]	2 to 16 µg/mL (≈ 3.75 to 30 µM)	2 to 16 µg/mL (≈ 3.75 to 30 µM)	2 to 16 µg/mL (≈ 3.75 to 30 µM)	< 2 µg/mL	A (MIC's of 2.0 μg/mL or less = A)	2 to 16 µg/mL (≈ 3.75 to 30 µM)	16 to 64 µg/mL (≈ 30 to 120 µM)	< 2 µg/mL
CC(=O)NC[C@H](NC(=O)c1ccc(/C=C/C#Cc2ccc(CN3CCOCC3)cc2)cc1)C(=O)NO [Example 111-3, N-[2-acetylamino-1-((S)-hydroxycarbamoyl)-ethyl]-4-[(E)-4-(4-morpholin-4-ylmethyl-phenyl)-but-1-en-3-ynyl]-]	< 2 µg/mL	2 to 16 µg/mL (≈ 4.08 to 32.6 µM)	2 to 16 µg/mL (≈ 4.08 to 32.6 µM)	< 2 µg/mL	A (MIC's of 2.0 μg/mL or less = A)	2 to 16 µg/mL (≈ 4.08 to 32.6 µM)	> 64 µg/mL	< 2 µg/mL
C[C@@H](N)[C@H](NC(=O)c1ccc(/C=C/C#Cc2ccc(CO)cc2)cc1)C(=O)NO [Example 112-1]	< 2 µg/mL	2 to 16 µg/mL (≈ 5.08 to 40.7 µM)	16 to 64 µg/mL (≈ 40.7 to 163 µM)	< 2 µg/mL	A (MIC's of 2.0 μg/mL or less = A)	< 2 µg/mL	> 64 µg/mL	< 2 µg/mL
NC[C@H](NC(=O)c1ccc(/C=C/C#Cc2ccc(CO)cc2)cc1)C(=O)NO [Example 112-2]	2 to 16 µg/mL (≈ 5.27 to 42.2 µM)	> 64 µg/mL	16 to 64 µg/mL (≈ 42.2 to 169 µM)	< 2 µg/mL	A (MIC's of 2.0 μg/mL or less = A)	2 to 16 µg/mL (≈ 5.27 to 42.2 µM)	> 64 µg/mL	< 2 µg/mL
C[C@@H](O)[C@H](NC(=O)c1ccc(/C=C/C#Cc2ccc(CO)cc2)cc1)C(=O)NO [Example 112-3]	< 2 µg/mL	16 to 64 µg/mL (≈ 40.6 to 162 µM)	16 to 64 µg/mL (≈ 40.6 to 162 µM)	< 2 µg/mL	A (MIC's of 2.0 μg/mL or less = A)	2 to 16 µg/mL (≈ 5.07 to 40.6 µM)	16 to 64 µg/mL (≈ 40.6 to 162 µM)	< 2 µg/mL
CO[C@H](C)[C@H](NC(=O)c1ccc(/C=C/C#Cc2ccc(CO)cc2)cc1)C(=O)NO [Example 112-4]	< 2 µg/mL	< 2 µg/mL	2 to 16 µg/mL (≈ 4.9 to 39.2 µM)	< 2 µg/mL	A (MIC's of 2.0 μg/mL or less = A)	< 2 µg/mL	16 to 64 µg/mL (≈ 39.2 to 157 µM)	< 2 µg/mL
CC(C)(O)[C@H](NC(=O)c1ccc(/C=C/C#Cc2ccc(CO)cc2)cc1)C(=O)NO [Example 112-5]	< 2 µg/mL	< 2 µg/mL	2 to 16 µg/mL (≈ 4.9 to 39.2 µM)	< 2 µg/mL	A (MIC's of 2.0 μg/mL or less = A)	< 2 µg/mL	16 to 64 µg/mL (≈ 39.2 to 157 µM)	< 2 µg/mL
NC[C@H](NC(=O)c1ccc(/C=C/C#Cc2ccc(CNC3CC3)cc2)cc1)C(=O)NO [Example 113-1]	< 2 µg/mL	16 to 64 µg/mL (≈ 38.2 to 153 µM)	2 to 16 µg/mL (≈ 4.78 to 38.2 µM)	< 2 µg/mL	A (MIC's of 2.0 μg/mL or less = A)	2 to 16 µg/mL (≈ 4.78 to 38.2 µM)	> 64 µg/mL	< 2 µg/mL
C[C@@H](N)[C@H](NC(=O)c1ccc(/C=C/C#Cc2ccc(CNC3CC3)cc2)cc1)C(=O)NO [Example 113-2]	< 2 µg/mL	2 to 16 µg/mL (≈ 4.62 to 37 µM)	2 to 16 µg/mL (≈ 4.62 to 37 µM)	< 2 µg/mL	A (MIC's of 2.0 μg/mL or less = A)	< 2 µg/mL	> 64 µg/mL	< 2 µg/mL
